# “And” between values parts separate entries of the source, which are not always exact repeats. Identical values can stand only once. Like-named read-outs stand apart in the source and are kept apart here.
# System: metastatic or surgically unresectable urothelial cancer harboring select FGFR genetic alterations
# Conditions: for Disease control rate (CR + PR + SD) / Inevaluable / Objective response rate (CR + PR) / Progressive disease (PD) / Confirmed complete response (CR) / Confirmed partial response (PR) / 6-month progression-free survival rate (95% CI), among responders / 9-month progression-free survival rate (95% CI), among responders / 12-month progression-free survival rate (95% CI), among responders: chemo relapsed/refractory
# Excerpt: The study comprises a Screening Phase (molecular screening at any time prior to first dose and study screening within 30 days of first dose), a treatment phase, and a post-treatment follow-up phase. The treatment phase comprises the period from first dose until the end-of-treatment visit. The follow-up phase extends until the subject has died, withdraws consent, is lost to follow-up, or the end of study, whichever comes first.
# Included patients were adults with measurable urothelial cancer per Response Evaluation Criteria in Solid Tumors version 1.1.
# Patients were required to have at least 1 FGFR2/FGFR3 mutation or fusion per central lab testing of RNA from formalin-fixed, paraffin-embedded tumor samples, using a custom reverse transcriptase polymerase chain reaction assay.
# Patients were contacted every 12 weeks for survival assessment.
# The study was designed to enroll 180 patients with specified FGFR alterations. Of these, ≥88 were required in the selected regimen. […] Responses were assessed by investigators and an independent radiological review committee. Progression-free survival and overall survival were estimated using Kaplan-Meier product limit method. Data from patients who were progression free and alive or with unknown status were censored at last tumor assessment. Efficacy end points were analysed at primary analysis cut-off.
# [1] = 10 mg 7 on/7 off, Mutation and fusion: FGFR3-S249C/FGFR3-Y373C/FGFR2-CASP7/FGFR3-BAIAP2L1/FGFR3-TACC3 V1/FGFR3-TACC3 V3, n=1
# [2] = 10 mg 7 on/7 off, Mutation: FGFR3-G370C/FGFR3-S249C, n=1
# [3] = 10 mg 7 on/7 off, Mutation: FGFR3-R248C/FGFR3-Y373C, n=1
# [4] = 10 mg 7 on/7 off, Mutation: FGFR3-S249C/FGFR3-Y373C, n=1
# [5] = Regimen 1, 10 mg intermittent (n=33)
# [6] = Regimen 2, 6 mg continuous (n=78)
# [7] = Regimen 3, 8 mg continuous (n=99)
# [8] = Total (all 3 regimens), Any FGFR alterations, n=189
# [9] = Total (all 3 regimens), FGFR fusions (excluding mutations), 6 responders
# [10] = Total (all 3 regimens), FGFR fusions (excluding mutations), n=35
# [11] = Total (all 3 regimens), FGFR mutations (excluding fusions), 58 responders
# [12] = Total (all 3 regimens), FGFR mutations (excluding fusions), n=147
# [13] = Total (all 3 regimens), FGFR mutations and fusions, 4 responders
# [14] = Total (all 3 regimens), FGFR mutations and fusions, n=7
# [15] = Total (all 3 regimens), Fusion: FGFR2-CASP7/FGFR3-BAIAP2L1, n=1
# [16] = Total (all 3 regimens), Fusion: FGFR2-CASP7/FGFR3-TACC3 V3, n=1
# [17] = Total (all 3 regimens), Mutation and fusion: FGFR3-G370C/FGFR2-BICC1, n=1
# [18] = Total (all 3 regimens), Mutation and fusion: FGFR3-G370C/FGFR3-TACC3 V1, n=1
# [19] = Total (all 3 regimens), Mutation and fusion: FGFR3-R248C/FGFR3-S249C/FGFR3-TACC3 V1, n=1
# [20] = Total (all 3 regimens), Mutation and fusion: FGFR3-R248C/FGFR3-TACC3 V1, n=2
# [21] = Total (all 3 regimens), Mutation and fusion: FGFR3-S249C/FGFR3-BAIAP2L1, n=1
# [22] = Total (all 3 regimens), Mutation and fusion: FGFR3-S249C/FGFR3-Y373C/FGFR2-CASP7/FGFR3-BAIAP2L1/FGFR3-TACC3 V1/FGFR3-TACC3 V3, n=1
# [23] = Total (all 3 regimens), Mutation: FGFR3-G370C/FGFR3-S249C, n=2
# [24] = Total (all 3 regimens), Mutation: FGFR3-R248C/FGFR3-Y373C, n=2
# [25] = Total (all 3 regimens), Mutation: FGFR3-S249C/FGFR3-Y373C, n=1
smiles,measurement,setting,value
"COc1cc(OC)cc(N(CCNC(C)C)c2ccc3ncc(-c4cnn(C)c4)nc3c2)c1 [erdafitinib, N-(3,5-dimethoxy-phenyl)-N′-(1-methylethyl)-N-[3-(1-methyl-1H-pyrazol-4-yl)quinoxalin-6-yl]ethane-1,2-diamine]",Disease control rate (CR + PR + SD),[1],1 (100.0%)
same,Inevaluable,[1],0%
same,Objective response rate (CR + PR),[1],0%
same,Progressive disease (PD),[1],0%
same,Confirmed complete response (CR),[2],0%
same,Confirmed partial response (PR),[2],1 (100.0%)
same,Disease control rate (CR + PR + SD),[2],1 (100.0%)
same,Inevaluable,[2],0%
same,Objective response rate (CR + PR),[2],1 (100.0%)
same,Progressive disease (PD),[2],0%
same,Confirmed complete response (CR),[3],0%
same,Confirmed partial response (PR),[3],1 (100.0%)
same,Disease control rate (CR + PR + SD),[3],1 (100.0%)
same,Inevaluable,[3],0%
same,Objective response rate (CR + PR),[3],1 (100.0%)
same,Progressive disease (PD),[3],0%
same,Confirmed complete response (CR),[4],0%
same,Confirmed partial response (PR),[4],0%
same,Disease control rate (CR + PR + SD),[4],1 (100.0%)
same,Inevaluable,[4],0%
same,Objective response rate (CR + PR),[4],0%
same,Progressive disease (PD),[4],0%
same,Complete response per investigator assessment,[5],1 (3) %
same,Not evaluable or unknown per investigator assessment,[5],2 (6) %
same,Objective response rate per investigator assessment,[5],7 (21) %
same,Partial response per investigator assessment,[5],6 (18) %
same,Progressive disease per investigator assessment,[5],6 (18) %
same,Stable disease per investigator assessment,[5],18 (55) %
same,Objective response rate per investigator assessment,"Regimen 1, 10 mg intermittent, liver metastases",3/11 (27) %
same,Complete response per investigator assessment,[6],3 (4) %
same,Not evaluable or unknown per investigator assessment,[6],5(6) %
same,Objective response rate per investigator assessment,[6],27 (35) %
same,Partial response per investigator assessment,[6],24 (31) %
same,Progressive disease per investigator assessment,[6],16 (21) %
same,Objective response rate per investigator assessment,"Regimen 2, 6 mg continuous, bone metastases",6/15 (40) %
same,Not evaluable or unknown per investigator assessment,[7],2 (2.0) %
same,Objective response rate per investigator assessment,[7],40.4% and 40% and 40 (40.4) %
same,Partial response per investigator assessment,[7],37 (37.4) %
same,Progressive disease per investigator assessment,[7],18 (18.2) %
same,Stable disease per investigator assessment,[7],39% and 39 (39.4) %
same,Objective response rate per investigator assessment,"Regimen 3, 8 mg continuous, with FGFR3 mutations (n=74)",48.6% and 36/74 (48.6) %
same,"Median DoR (95% CI), investigator assessment","Regimen 3, chemotherapy-refractory patients, N = 87","5.55 (4.21, 7.00) months"
same,Confirmed complete response (CR),[8],7 (3.7%)
same,Confirmed partial response (PR),[8],61 (32.3%)
same,Disease control rate (CR + PR + SD),[8],147 (77.8%)
same,Inevaluable,[8],8 (4.2%)
same,Objective response rate (CR + PR),[8],68 (36.0%)
same,Progressive disease (PD),[8],34 (18.0%)
same,"6-month progression-free survival rate (95% CI), among responders",[9],"0.50 (0.11, 0.80)"
same,"9-month progression-free survival rate (95% CI), among responders",[9],"0.50 (0.11, 0.80)"
same,"12-month progression-free survival rate (95% CI), among responders",[9],"0.50 (0.11, 0.80)"
same,Confirmed complete response (CR),[10],0%
same,Confirmed partial response (PR),[10],6 (17.1%)
same,Disease control rate (CR + PR + SD),[10],25 (71.4%)
same,Inevaluable,[10],2 (5.7%)
same,Objective response rate (CR + PR),[10],6 (17.1%)
same,Progressive disease (PD),[10],8 (22.9%)
same,"6-month progression-free survival rate (95% CI), among responders",[11],"0.45 (0.32, 0.58)"
same,"9-month progression-free survival rate (95% CI), among responders",[11],"0.29 (0.17, 0.42)"
same,"12-month progression-free survival rate (95% CI), among responders",[11],"0.22 (0.12, 0.35)"
same,Confirmed complete response (CR),[12],6 (4.1%)
same,Confirmed partial response (PR),[12],52 (35.4%)
same,Disease control rate (CR + PR + SD),[12],117 (79.6%)
same,Inevaluable,[12],5 (3.4%)
same,Objective response rate (CR + PR),[12],58 (39.5%)
same,Progressive disease (PD),[12],25 (17.0%)
same,"6-month progression-free survival rate (95% CI), among responders",[13],"0.50 (0.06, 0.84)"
same,"9-month progression-free survival rate (95% CI), among responders",[13],"0.50 (0.06, 0.84)"
same,"12-month progression-free survival rate (95% CI), among responders",[13],"0.25 (0.01, 0.67)"
same,Confirmed complete response (CR),[14],1 (14.3%)
same,Confirmed partial response (PR),[14],3 (42.9%)
same,Disease control rate (CR + PR + SD),[14],5 (71.4%)
same,Inevaluable,[14],1 (14.3%)
same,Objective response rate (CR + PR),[14],4 (57.1%)
same,Progressive disease (PD),[14],1 (14.3%)
same,Confirmed complete response (CR),[15],0%
same,Confirmed partial response (PR),[15],0%
same,Disease control rate (CR + PR + SD),[15],1 (100.0%)
same,Inevaluable,[15],0%
same,Objective response rate (CR + PR),[15],0%
same,Progressive disease (PD),[15],0%
same,Confirmed complete response (CR),[16],0%
same,Confirmed partial response (PR),[16],0%
same,Disease control rate (CR + PR + SD),[16],0%
same,Inevaluable,[16],1 (100.0%)
same,Objective response rate (CR + PR),[16],0%
same,Progressive disease (PD),[16],0%
same,Confirmed complete response (CR),[17],1 (100.0%)
same,Confirmed partial response (PR),[17],0%
same,Disease control rate (CR + PR + SD),[17],1 (100.0%)
same,Inevaluable,[17],0%
same,Objective response rate (CR + PR),[17],1 (100.0%)
same,Progressive disease (PD),[17],0%
same,Confirmed complete response (CR),[18],0%
same,Confirmed partial response (PR),[18],1 (100.0%)
same,Disease control rate (CR + PR + SD),[18],1 (100.0%)
same,Inevaluable,[18],0%
same,Objective response rate (CR + PR),[18],1 (100.0%)
same,Progressive disease (PD),[18],0%
same,Confirmed complete response (CR),[19],0%
same,Confirmed partial response (PR),[19],1 (100.0%)
same,Disease control rate (CR + PR + SD),[19],1 (100.0%)
same,Inevaluable,[19],0%
same,Objective response rate (CR + PR),[19],1 (100.0%)
same,Progressive disease (PD),[19],0%
same,Confirmed complete response (CR),[20],0%
same,Confirmed partial response (PR),[20],1 (50.0%)
same,Disease control rate (CR + PR + SD),[20],1 (50.0%)
same,Inevaluable,[20],1 (50.0%)
same,Objective response rate (CR + PR),[20],1 (50.0%)
same,Progressive disease (PD),[20],0%
same,Confirmed complete response (CR),[21],0%
same,Confirmed partial response (PR),[21],0%
same,Disease control rate (CR + PR + SD),[21],0%
same,Inevaluable,[21],0%
same,Objective response rate (CR + PR),[21],0%
same,Progressive disease (PD),[21],1 (100.0%)
same,Confirmed complete response (CR),[22],0%
same,Confirmed partial response (PR),[22],0%
same,Disease control rate (CR + PR + SD),[22],1 (100.0%)
same,Inevaluable,[22],0%
same,Objective response rate (CR + PR),[22],0%
same,Progressive disease (PD),[22],0%
same,Confirmed complete response (CR),[23],0%
same,Confirmed partial response (PR),[23],1 (50.0%)
same,Disease control rate (CR + PR + SD),[23],2 (100.0%)
same,Inevaluable,[23],0%
same,Objective response rate (CR + PR),[23],1 (50.0%)
same,Progressive disease (PD),[23],0%
same,Confirmed complete response (CR),[24],0%
same,Confirmed partial response (PR),[24],2 (100.0%)
same,Disease control rate (CR + PR + SD),[24],2 (100.0%)
same,Inevaluable,[24],0%
same,Objective response rate (CR + PR),[24],2 (100.0%)
same,Progressive disease (PD),[24],0%
same,Confirmed complete response (CR),[25],0%
same,Confirmed partial response (PR),[25],0%
same,Disease control rate (CR + PR + SD),[25],1 (100.0%)
same,Inevaluable,[25],0%
same,Objective response rate (CR + PR),[25],0%
same,Progressive disease (PD),[25],0%

# — patent US12691112B2, “FGFR tyrosine kinase inhibitors for the treatment of urothelial carcinoma” (Janssen Pharmaceutica NV, priority 2019, dated 2026)
